Like-named read-outs stand apart in the source and are kept apart here.
Legend:
human aPC = target: T1, human aPC (Homo sapiens, UniProt P04070); test: In vitro enzyme assay for specificity: activated protein C, IC50; assay type: biochemical; details: Table 3
T1 construct: purchased Hematologic Technologies, Inc
Method: aPC catalytic activity was determined using the chromogenic substrate, Pefachrome PC (delta-carbobenzloxy-D-lysine -L-prolyl-L-arginine-p-nitroanilide), obtained from Pentapharm Ltd.). […] Purified human aPC was obtained from Hematologic Technologies, Inc. The enzyme was diluted into HBSA prior to assay in which the final concentration was 1.0 nM.

citrated rat plasma = test: Anticoagulant effect in rat plasma, activated partial thromboplastin time (APTT) assay; assay type: biochemical; details: for prolongation of the APTT: rat plasma, broad concentration range of added inhibitor
Method: (§1) The ex vivo anticoagulant effects of BzlSO2 -norVal (cyclo)-Gly-Arg-al(Example 8) and N-(BnSO2 -norLeu (cyclo)-Gly)-L-argininal (Example 34) were determined by measuring the prolongation of the activated partial thromboplastin time (APTT) over a broad concentration range of the added inhibitor, using pooled normal human and rat plasma.
(§2) Fresh frozen citrated pooled normal human plasma was obtained from George King Biomedical, Overland Park, Kans. Pooled normal rat plasma was prepared from citrated whole blood collected from anesthetized rats using standard procedures. The plasma was flash frozen and stored at -80° C. until use.
(§3) Measurements APTT was made using the Coag-A-Mate RA4 automated coagulometer (General Diagnostics, Organon Technica, Oklahoma City, Okla.) using the Automated APTT reagent (Organon Technica, Durham, N.C.) as the initiator of clotting according to the manufacturers instructions. The assay was conducted by making a series of dilutions of the test compounds in rapidly thawed plasma followed by adding 200 microliters to the wells of the assay carousel.

[1] = system: FeCl3 -induced Platelet-dependent Arterial Thrombosis; test: Rat model of FeCl3 -induced platelet-dependent arterial thrombosis; assay type: in vivo; details: for ED50 for thrombus prevention (dose that prevents complete thrombotic occlusion in 50% of animals tested): rat FeCl3 model of arterial thrombosis; for Incidence of Occlusion: rat
Description: This is a well characterized model of platelet dependent, arterial thrombosis which has been used in the evaluation potential antithrombotic compounds such as direct thrombin inhibitors. Kurz, K. D., Main, B. W., and Sandusky, G. E., Thromb. Res., 60: 269-280 (1990). In this model a platelet-rich, occlusive thrombus is formed in a segment of the rat carotid artery treated locally with a fresh solution of FeCl3 absorbed to a piece of filter paper. The FeCl3 is thought to diffuse into the treated segment of artery and causes de-endothelialization of the affected vessel surface. […] The effect of a test compound on the incidence of occlusive thrombus formation following the application of the FeCl3 is monitored by ultrasonic flowtometry and is used as the primary end point. The use of flowtometry to measure carotid artery blood flow, is a modification of the original procedure in which thermal detection of clot formation was employed. Kurz, K. D., Main, B. W., and Sandusky, G. E., Thromb. Res., 60: 269-280 (1990).
Male Harlan Sprague Dawley rats (420-450 g) were acclimated at least 72 hours prior to use and fasted for 12 hours prior to surgery with free access to water. The animals were prepared, anesthetized with Nembutal followed by the insertion of catheters for blood pressure monitoring, drug and anesthesia delivery. The left carotid artery was isolated by making a midline cervical incision followed by blunt dissection and spreading techniques to separate a 2 cm segment of the vessel from the carotid sheath. A silk suture is inserted under the proximal and distal ends of the isolated vessel to provide clearance for the placement of a ultrasonic flow probe (Transonic) around the proximal end of the vessel. The probe is then secured with a stationary arm.
Following surgery the animals were randomized in either a control (saline) or treatment group with test compound (BzlSO2 -norVal(cyclo)-Gly-Arg-al or N-(BnSO2 -norLeu(cyclo)Gly)-L-argininal)with at least 6 animals per group per dose. The test compound was administered as a single intravenous bolus at the doses outlined in Table 3 after placement of the flow probe and 5 minutes prior to the thrombogenic stimulus. At t=0, a 3 mm diameter piece of filter paper (Whatman #3) soaked with 10 microliters of a 35% solution of fresh FeCl3 (made up in water) was applied the segment of isolated carotid artery distal to the flow probe. Blood pressure, blood flow, heart rate, and respiration were monitored for 60 minutes.
The incidence of occlusion (defined as the attainment of zero blood flow) was recorded as the primary end point.
This allows a direct comparison of the antithrombotic efficacy of BzlSO2 -norVal(cyclo)-Gly-Arg-al and N-(BnSO2 -norLeu(cyclo)-Gly)-L-argininal with other antithrombotic agents which have also been evaluated in this model as described above. Table 6 lists the ED50 values for several well known anticoagulant agents in this model compared to the present compounds.

[2] = target: T2, bovine pancreatic trypsin (Bos taurus, UniProt P00760); test: In vitro enzyme assay for specificity: trypsin, IC50; assay type: biochemical; details: Table 2
T2 sequence (P00760 24-246): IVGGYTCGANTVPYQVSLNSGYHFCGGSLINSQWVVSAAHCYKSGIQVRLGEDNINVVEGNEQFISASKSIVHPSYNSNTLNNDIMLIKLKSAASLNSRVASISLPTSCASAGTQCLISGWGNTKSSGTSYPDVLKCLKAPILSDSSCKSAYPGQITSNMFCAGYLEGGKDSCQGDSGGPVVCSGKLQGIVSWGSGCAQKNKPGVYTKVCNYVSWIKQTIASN
Method: Trypsin catalytic activity was determined using the chromogenic substrate, S-2222 (benzoyl-L-isoleucine-L-glutamic acid-(gamma-methyl ester)-L-arginine-p-nitroanilide), which was obtained from Kabi Diagnostica. […] Purified (3×-crystallized; TRL3) bovine pancreatic trypsin was obtained from Worthington Biochemical Corp. The enzyme was reconstituted in deionized water and diluted into HBSA prior to assay in which the final concentration was 0.5 nM.

citrated human plasma = test: Anticoagulant effect in human plasma, activated partial thromboplastin time (APTT) assay; assay type: biochemical; details: for concentration which caused a doubling of the control clotting time (APTT): citrated human plasma, mean of two independent determinations; for prolongation of the APTT: human plasma, broad concentration range of added inhibitor
Method: as §1, §2, §3

Human rt-PA (Activase®) = target: T3, Human rt-PA (Activase®) (Homo sapiens, UniProt P00750); test: In vitro enzyme assay for specificity: recombinant tissue plasminogen activator, IC50; assay type: biochemical; details: Table 3
T3 construct: purchased Genentech Inc. Activase®
Method: The buffer used for all assays was HBSA (10 mM HEPES, pH 7.5, 150 mM sodium chloride, 0.1% bovine serum albumin). […] Following a 30-minute incubation at ambient temperature, 50 microliters of the substrate at the concentrations specified below, was added to the wells yielding a final total volume of 200 microliters. The initial velocity of chromogenic substrate hydrolysis was measured by the change in absorbance at 405nm using a Thermo Max® Kinetic Microplate Reader over a 5 minute period in which less than 5% of the added substrate was utilized.
rt-PA catalytic activity was determined using the substrate, Pefachrome t-PA (CH3SO2-D-hexahydrotyrosine-glycyl-L-arginine-p-nitroanilide, obtained from Pentapharm Ltd.). […] Human rt-PA (Activase®) was obtained from Genentech Inc. The enzyme was reconstituted in deionized water and diluted into HBSA prior to the assay in which the final concentration was 1.0 nM.

[3] = system: activated partial thromboplastin time (APTT); test: Oral activity in dogs: clotting time of blood samples by APTT assay; assay type: in vivo, beagle dogs; details: after oral dosing
Method: (§4) The pharmacodynamic and pharmacokinetic parameters of the compound of Example 34 were evaluated after oral administration in dogs. Adult beagle dogs (9-12 kg) were housed individually in standard cages, and were fed a standard certified commercial diet and tap water ad libitum. Dogs were given an oral dose of 20 mg/kg test compound, in 55 ml deionized water, via a gastric tube, followed by a water rinse. In a separate protocol, 5 mg/kg of test compound, in 5 ml 0.9% sodium chloride, were administered by fast bolus i.v. injection through an indwelling saphenous vein catheter. The same dogs were used for both routes of administration, with a one week wash out period between use of the dogs for the different protocols.
After mixing with the anticoagulant, each blood sample was immediately chilled by immersion in a slurry of ice and water. The plasma was separated by centrifugation (4° C., 2400 rpm, 10 min) within 10 min of collection, and then transferred to a cryotube and stored at […] until analysis.
(§5) The blood levels of test compound were measured by extracting the compound from plasma, separation by HPLC, and post-column derivatization with a fluorogenic functional group. The clotting time of blood was measured using an APTT assay, which measures the prolongation of the activated partial thromboplastin time (APTT) by the test compound. […]

human α-thrombin = human α-thrombin (Homo sapiens, UniProt P00734); test: In vitro enzyme assay for specificity: Thrombin (fIIa) assay, IC50; assay type: biochemical
Method: IC50 determinations were conducted where HBSA (50 μL), α-thrombin (50 μl) and inhibitor (50 μl) (covering a broad concentration range), were combined in appropriate wells and incubated for 30 minutes at room temperature prior to the addition of substrate Pefachrome-t-PA (50 μl).

[4] = Oral activity in dogs: blood levels and bioavailability; assay type: in vivo, beagle dogs
Method: as §4, with “protocols. […]” for “protocols.”
as §5
The systemic bioavailability of the test compound administered by the oral route was calculated by comparing the AUC values (area under curve describing level of compound in blood over time) after i.v. and oral administration. […]

human alpha-thrombin = human alpha-thrombin (Homo sapiens, UniProt P00734); test: Kinetic analysis in an in vitro thrombin inhibition assay (Ki); assay type: biochemical; details: Table 1; Mean ± SD, n = 3; steady state velocities over 40 minutes
Method: Enzyme activity was determined using the chromogenic substrate Pefachrome t-PA (CH3SO2-D-hexahydrotyrosine-glycyl -L-arginine-p-Nitroanilide), obtained from Pentapharm Ltd. The substrate was reconstituted in deionized water prior to use. Purified human alpha-thrombin (3000U/mg specific activity) was obtained from Enzyme Research Laboratories, Inc. The buffer used for all assays was HBSA (10 mM HEPES, pH 7.5, 150 mM sodium chloride, 0.1% bovine serum albumin).
Velocities of chromogenic substrate hydrolysis which occurred over 40 minutes was measured by the change in absorbance at 405 nm using a Thermo Max® Kinetic Microplate Reader. […] The extent of substrate hydrolysis was less than 5% over the course of this assay.

human plasmin = human plasmin (Homo sapiens, UniProt P00747); test: In vitro enzyme assay for specificity: plasmin assay, IC50; assay type: biochemical; details: Table 3
Method: Plasmin catalytic activity was determined using the chromogenic substrate, S-2251 (D-valyl-L-leucyl-L-lysine-p-nitroanilide), which was obtained from Kabi Diagnostica.

[5] = 0.3 mg/kg single intravenous bolus 5 minutes prior to FeCl3, n 6, monitored 60 minutes
[6] = 1.0 mg/kg single intravenous bolus 5 minutes prior to FeCl3, n 6, monitored 60 minutes
[7] = 3.0 mg/kg single intravenous bolus 5 minutes prior to FeCl3, n 6, monitored 60 minutes
[8] = 5.0 mg/kg single intravenous bolus 5 minutes prior to FeCl3, n 6, monitored 60 minutes
[9] = Table 2, 30-minute incubation with enzyme before substrate, read-out: IC50 alpha-thrombin
[10] = Table 3, read-out: IC50 (nM) thrombin

T1 sequence (P04070 43-197 limits assumed): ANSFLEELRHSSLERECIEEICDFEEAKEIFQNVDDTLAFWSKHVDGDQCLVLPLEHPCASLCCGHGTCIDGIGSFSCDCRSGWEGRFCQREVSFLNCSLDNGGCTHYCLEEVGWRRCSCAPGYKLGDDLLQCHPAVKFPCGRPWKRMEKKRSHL
T1 sequence (P04070 212-461 limits assumed): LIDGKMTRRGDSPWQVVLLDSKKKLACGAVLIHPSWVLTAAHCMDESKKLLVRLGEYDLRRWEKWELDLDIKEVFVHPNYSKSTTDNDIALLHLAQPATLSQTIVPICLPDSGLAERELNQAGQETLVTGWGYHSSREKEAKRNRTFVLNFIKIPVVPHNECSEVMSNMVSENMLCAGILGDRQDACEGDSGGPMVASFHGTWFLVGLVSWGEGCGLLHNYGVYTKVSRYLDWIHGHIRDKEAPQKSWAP
T3 sequence (P00750 36-562): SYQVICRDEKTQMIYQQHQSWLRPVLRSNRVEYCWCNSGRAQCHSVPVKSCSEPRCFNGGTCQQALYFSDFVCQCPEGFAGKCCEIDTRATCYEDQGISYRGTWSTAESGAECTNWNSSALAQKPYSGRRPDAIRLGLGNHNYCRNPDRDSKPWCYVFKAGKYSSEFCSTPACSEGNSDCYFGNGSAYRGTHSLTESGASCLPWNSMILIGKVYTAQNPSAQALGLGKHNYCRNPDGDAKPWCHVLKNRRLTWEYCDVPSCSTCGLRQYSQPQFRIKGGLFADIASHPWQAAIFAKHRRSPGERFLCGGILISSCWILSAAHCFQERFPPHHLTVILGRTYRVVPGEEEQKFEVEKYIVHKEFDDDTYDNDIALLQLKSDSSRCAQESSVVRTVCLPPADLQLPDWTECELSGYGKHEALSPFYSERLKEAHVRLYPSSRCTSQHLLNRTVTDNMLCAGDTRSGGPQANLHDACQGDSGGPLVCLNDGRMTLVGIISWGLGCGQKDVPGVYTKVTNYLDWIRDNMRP
Chain of human plasmin (P00747 97-580 limits assumed): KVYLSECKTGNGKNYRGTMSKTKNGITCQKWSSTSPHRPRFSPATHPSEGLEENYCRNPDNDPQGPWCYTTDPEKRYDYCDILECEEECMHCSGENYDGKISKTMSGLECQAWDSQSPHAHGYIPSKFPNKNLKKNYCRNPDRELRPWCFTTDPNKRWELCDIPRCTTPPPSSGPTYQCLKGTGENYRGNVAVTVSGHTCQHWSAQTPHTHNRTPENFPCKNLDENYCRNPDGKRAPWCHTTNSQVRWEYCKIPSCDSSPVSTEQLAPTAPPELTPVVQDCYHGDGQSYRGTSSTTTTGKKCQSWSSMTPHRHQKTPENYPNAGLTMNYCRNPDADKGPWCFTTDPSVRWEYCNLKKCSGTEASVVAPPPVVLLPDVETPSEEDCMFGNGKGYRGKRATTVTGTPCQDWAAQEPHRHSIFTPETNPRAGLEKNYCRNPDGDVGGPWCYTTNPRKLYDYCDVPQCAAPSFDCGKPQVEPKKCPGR
Chain of human plasmin (P00747 581-810 limits assumed): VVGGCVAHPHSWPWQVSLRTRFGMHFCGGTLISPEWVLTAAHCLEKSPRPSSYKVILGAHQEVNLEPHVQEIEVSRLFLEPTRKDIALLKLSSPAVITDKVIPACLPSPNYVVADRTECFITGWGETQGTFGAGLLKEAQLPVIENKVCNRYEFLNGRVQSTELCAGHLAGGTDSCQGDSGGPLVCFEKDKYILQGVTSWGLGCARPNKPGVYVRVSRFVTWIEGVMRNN

Structure (SMILES)	IC50 (human aPC) [nM]	IC50 [2] [nM]	IC50 (Human rt-PA (Activase®)) [nM]	IC50 (human α-thrombin; [10]) [nM]	IC50 (human plasmin) [nM]	also measured
NC(N)=NCCC[C@@H](C=O)NC(=O)CN1CCCC(NS(=O)(=O)Cc2ccccc2)C1=O (stereo partly drawn) [Example 8, N-benzylsulfonyl-norVal(cyclo)-Gly-L-argininal]	> 2500	1550	> 2500	–	–	concentration which caused a doubling of the control clotting time (APTT) (citrated rat plasma; citrated rat plasma, control clotting time 20 sec, mean of two independent determinations): 22.1 µM; prolongation of the APTT (citrated rat plasma): prolonged the APTT in a dose-dependent manner; ED50 for thrombus prevention (dose that prevents complete thrombotic occlusion in 50% of animals tested) [1]: 0.75 mg/kg; Incidence of Occlusion [1, 5]: 6/6; Incidence of Occlusion [1, 6]: 2/6; Incidence of Occlusion [1, 7]: 1/6; Incidence of Occlusion [1, 8]: 0/6; concentration which caused a doubling of the control clotting time (APTT) (citrated human plasma): 12.8 µM; prolongation of the APTT (citrated human plasma): prolonged the APTT in a dose-dependent manner
NC(N)=NCCC[C@@H](C=O)NC(=O)CN1CCCCC(NS(=O)(=O)Cc2ccccc2)C1=O (stereo partly drawn) [Example 34, N-(BnSO2 -norLeu(cyclo)-Gly)-L-argininal]	–	72	–	0.71	–	time to significant elevation of APTT [3]: 20 to 30 min; IC50 (human α-thrombin; [9]): 0.93 nM; prolongation of the APTT (citrated rat plasma): prolonged the APTT in a dose-dependent manner; ED50 for thrombus prevention (dose that prevents complete thrombotic occlusion in 50% of animals tested) [1]: 2.1 mg/kg; Incidence of Occlusion [1, 5]: 6/6; Incidence of Occlusion [1, 6]: 6/6; Incidence of Occlusion [1, 7]: 2/6; Incidence of Occlusion [1, 8]: 2/6; time at which blood level of compound reached maximum levels ([4]; after administration): 30 to 40 min; systemic bioavailability (ratio of AUC oral to AUC i.v.) ([4]; oral 20 mg/kg vs i.v. 5 mg/kg, corrected for difference in dose): approximately 66%; concentration which caused a doubling of the control clotting time (APTT) (citrated human plasma): 4.5 µM; prolongation of the APTT (citrated human plasma): prolonged the APTT in a dose-dependent manner; Ki (human alpha-thrombin): 0.538 ± 0.08 nM
NC(N)=NCCC[C@@H](C=O)NC(=O)CN1CCCCC(NS(=O)(=O)CC2CCCCC2)C1=O (stereo partly drawn) [Example 36(i), N-(cyclohexylmethyl-SO2 -norLeu(cyclo)-Gly)-L-argininal]	–	7.86	–	–	> 2500	IC50 (human α-thrombin; [9]): 4.54 nM
NC(N)=NCCC[C@@H](C=O)NC(=O)CN1CCCCC(NS(=O)(=O)Nc2ccccc2)C1=O (stereo partly drawn) [Example 36(n), N-(phenylamino-SO2 -norLeu(cyclo)-Gly)-L-argininal]	–	–	–	14.2	> 2500	–
N=C(N)NCCC[C@@H](C=O)NC(=O)CN1CCCC(NS(=O)(=O)Cc2cccc(C(F)(F)F)c2)C1=O (stereo partly drawn) [Example 36(p), N-(3-trifluoromethylbenzyl-SO2-norLeu(cyclo)-Gly)-L-argininal]	> 2500	–	> 2500	1.9	> 2500	–
Cc1ccccc1CS(=O)(=O)NC1CCCN(CC(=O)N[C@H](C=O)CCCNC(=N)N)C1=O (stereo partly drawn) [Example 36(q), N-(2-methylbenzyl-SO2-norLeu(cyclo)-Gly)-L-argininal]	–	–	–	1.71	–	–
Cc1cccc(CS(=O)(=O)NC2CCCCN(CC(=O)N[C@H](C=O)CCCN=C(N)N)C2=O)c1 (stereo partly drawn) [Example 36(r), N-(3-methylbenzyl-SO2-norLeu(cyclo)-Gly)-L-argininal]	–	–	–	0.93	–	–
NC(N)=NCCC[C@@H](C=O)NC(=O)CN1CCCC(N)(Cc2ccccc2)C1=O (stereo partly drawn) [Example 55, N-[D, L-3-Amino-3-benzyl-2-oxo-1-piperidineacetyl]-L-argininal]	> 2500	–	> 2500	5.41	> 2500	–
NC(N)=NCCC[C@@H](C=O)NC(=O)CN1CCCCC(N)(Cc2ccccc2)C1=O (stereo partly drawn) [Example 64, N-[D,.L-3-Amino-3-benzyl-hexahydro-2-oxo-azepine-1-acetyl]-L-argininal]	> 2500	–	> 2500	5.41	> 2500	–
N=C(N)NCCC[C@@H](C=O)NC(=O)CN1CCC[C@H](NCCc2ccccc2)C1=O [Example 72(a), N-[(S)-3-N-phenylethylamino-2-oxo-1-piperidineacetyl]-L-argininal]	> 2500	–	> 2500	3.09	> 2500	–

Source: patent US6034215A, “3-amino-2-oxo-1-piperidnercetic derivatives as enzyme inhibitors” (Corvas International, Inc., priority 1997, dated 2000)
